Earlier results as cited in publication PMC3461162 (British Journal of Cancer, 2012).

Settings: phase I, currently being investigated; no reference given; cited from earlier work

## CNC(=O)c1cccc(-c2ccc3c(N4CCOC[C@@H]4C)nc(N4CCOC[C@@H]4C)nc3n2)c1 [AZD2014]
  Rise in transaminases: no rise in transaminases has been reported
